Test results reported in ChEMBL document CHEMBL3351333, “Structural analysis of a novel small molecule ligand bound to the CXCL12 chemokine” (J Med Chem, 2014).

Molecular target: Stromal cell-derived factor 1 (Homo sapiens) (UniProt P48061)
Assay: Binding affinity to CXCL12 in human THP1 cells assessed as inhibition of CXCL12-induced cell migration at 25 uM incubated for 2 hrs by flow cytometry based chemotaxis assay
Settings: THP-1

Sequence of Stromal cell-derived factor 1 (Homo sapiens) (P48061 whole entry): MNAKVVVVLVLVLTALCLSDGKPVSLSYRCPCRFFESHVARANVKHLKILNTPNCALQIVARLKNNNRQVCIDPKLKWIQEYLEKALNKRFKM

| inhibition | SMILES |
| --- | --- |
| 20% | O=C(Nc1ccccc1)Nc1ccc(-c2nnn[nH]2)cc1 |
| 40% | O=C(NCCc1ccccc1)Nc1ccc(-c2nnn[nH]2)cc1 |
